Patent US9421179B2, “Acamprosate formulations, methods of using the same, and combinations comprising the same” (Synchroneuron Inc., priority 2011, dated 2016)
“Also recorded” adds a separate entry of the source. One block for each compound: values may come before it.

How the values were obtained:
[1] = system: Per2(Brdm1) deletion or ENT1(-/-) mice; assay: Transgenic mouse models with movement disorders and hyperglutamatergic states; format: in vivo; details: steadily-maintained blood level
[2] = cited from earlier work
[3] = cited from earlier work; remark: listed apart in the source
tardive dyskinesia = assay: Clinical cases: acamprosate treatment of tardive dyskinesia; format: in vivo, human
Procedure: Case 1: A person had long-standing tardive dyskinesia induced by treatment of schizoaffective disorder with a variety of neuroleptics and mood stabilizers. Their TD was characterized by side to side movements of the jaw, grimacing movements, rocking of the trunk, and continual involuntary kicking, leg-crossing, and twisting movements of their legs and feet. At the time they presented for treatment of their TD they were treated for their mental illness with lamotrigine and quetiapine, a second-generation neuroleptic.
After additional weeks free of TD symptoms they discontinued the acamprosate. Their TD symptoms returned, as did feelings of anxiety and agitation that had not been present while they were on the combination of acamprosate and perphenazine.
To test the hypothesis that the efficacy of acamprosate was related to adequate time above a threshold blood level the patient was asked to try taking 1332 mg of acamprosate once a day.
CASE 2: A person had been treated with acamprosate for several years for TD due to exposure to several neuroleptics for schizoaffective disorder. They were currently treated with lamotrigine and quetiapine for their mental illness, and was taking acamprosate 1032 mg+999 mg+1032 mg on a three times daily basis. […] To test the therapeutic threshold hypothesis the patient was asked to try 1032 mg of acamprosate once a day in the morning.

[4] = system: cultured rat hippocampus neurons; assay: Organotypic hippocampal slice model of glutamate neurotoxicity after acamprosate pre-treatment; format: cell-based; details: 200 μM calcium acamprosate for 8 hr or 5 days; removed for up to eight hours; challenge NMDA 50 uM or mGluR agonist
Procedure: The study is designed to test whether pre-treatment with acamprosate can have long-term neuronal protective effects against glutamate neurotoxicity. The study uses an in vitro organotypic hippocampal slice model. The study assesses whether less than 24 hours per day of exposure to a sufficient level of acamprosate can offer 24-hour therapeutic actions in neuropsychiatric disorders. […] This supports, among other things, the therapeutic use of acamprosate in neuropsychiatric disorders because the latter are related to the effect of acamprosate to decrease glutamate effects at NMDA and metabotropic glutamate receptors.
Hippocampal slices derived from 8-day-old Sprague Dawley rats are plated and subsequently exposed to a relatively acute (8 hour) or more chronic (5 day) acamprosate treatment. […] The slices are then placed in normal medium with propidium iodide for 24 hr and assessed for neurotoxicity/neuroprotection as described below. […]
For the final medium change, the plates are moved into normal media containing propidium iodide (PI) added to each well for 24 hours. PI only penetrates cell membranes of damaged or potentially dying cells, binding to DNA to produce a bright, intensified red fluorescence at 630 nm. […] Fluorescence is recorded in arbitrary units, then converted to percent of control, facilitating comparison across multiple cultures and controlling for variation between litters.

[5] = system: abnormal chewing movements produced in rats by haloperidol; assay: Rat model of tardive dyskinesia (haloperidol-induced abnormal chewing movements); format: in vivo; details: steadily-maintained blood level; rats exposed several weeks to haloperidol
Procedure: Acamprosate is tested using a rat model of tardive dyskinesia looking at abnormal chewing movements produced in rats by exposing them for several weeks to haloperidol, a potent first-generation neuroleptic. […]

[6] = Gastric retention time of swellable acamprosate tablet in dog model (fed mode induction with alpha-lipoic acid); format: in vivo; details: retention of 800 mg swellable tablet; After 125 mg alpha-lipoic acid given 15 minutes before; four beagle dogs

SMILES: CC(=O)NCCCS(=O)(=O)O [acamprosate, calcium N-acetylhomotaurinate]
abnormal movements [1]: reduce or eliminate the abnormal movements
decrease of bioavailability by food [2]: approximately 30%
solubility [3]: high solubility
solubility in gastric juice ([3]; gastric juice): immediately and completely soluble in gastric juice
relief of TD symptoms (tardive dyskinesia; Case 1, 666 mg three times a day): partial relief of symptoms; also recorded: did not give their complete relief
relief of TD symptoms (tardive dyskinesia; Case 1, 999 mg three times a day): complete relief of their TD
anxiety and agitation (tardive dyskinesia; Case 1, 999 mg three times a day, with perphenazine): relief of anxiety and agitation
relief of TD symptoms (tardive dyskinesia; Case 1, 1332 mg once a day): free of involuntary movements of TD
side effects (tardive dyskinesia; Case 1, 1332 mg once a day): significant GI side effects of diarrhea and abdominal cramps
relief of involuntary movements of TD (tardive dyskinesia; Case 2, 999 mg three times a day): did not give full relief from their involuntary movements
relief of involuntary movements of TD (tardive dyskinesia; Case 2, 1032 mg in the morning plus second dose of 1032 mg 8 to 10 hours later): complete relief of symptoms
relief of involuntary movements of TD (tardive dyskinesia; Case 2, 1032 mg once a day in the morning): free of movements in the morning and early afternoon but movements returned in the evening
relief of involuntary movements of TD (tardive dyskinesia; Case 2, 1032 mg+999 mg+1032 mg three times daily): completely relieved their involuntary movements of TD
anxiety and agitation (tardive dyskinesia; Case 2, when involuntary movements were relieved, with lamotrigine and quetiapine): less anxiety and agitation
effect on post-synaptic effects of glutamate agonists after removal of acamprosate from the culture medium [4]: persistent effect
abnormal chewing movements [5]: reduce or eliminate the abnormal movements

Average gastric retention time [6]: 2.8 h
Maximum gastric retention time [6]: 5 h
Minimum gastric retention time [6]: 1.5 h
SMILES: O=C(O)CCCCC1CCSS1 (stereo not drawn) [alpha-lipoic acid]
